Results taken from US9682982B2, “Inhibitors of adapter associated kinase 1, compositions comprising them, and methods of their use” (Lexicon Pharmaceuticals, Inc., priority 2014, dated 2017).

What was measured:
[1] = tested on: formalin-induced nociception in male C57 mice; test: Formalin Assay (paw flinching); assay type: in vivo, mouse; settings: male C57 mice, 1, 3, 10 and 30 mpk, given 30 minutes prior to formalin; one-way ANOVA P<0.01 dose effect; FIG. 4 and 5
Method: Mice were tested for nociception with Automatic Nociception Analyzers (purchased from the Ozaki lab at University of California, San Diego). A metal band was placed around the left hind paw of each mouse with superglue 30 minutes prior to testing. After the 30-minute acclimation period, 20 μl of 5% formalin was subcutaneously injected in the dorsal surface of the left hind paw. Mice were individually housed in cylindrical chambers for 45 minutes. Fresh 5% formalin solution was prepared by diluting formaldehyde (Formalde-fresh 20%, Fisher Scientific, Fair Lawn, N.J.) with distilled water. Investigatory compounds were administered 30 minutes prior to formalin injection.
A computer software recorded flinches per minute, total flinches for Phase I (acute phase=first 8 minutes), and total flinches for Phase II (tonic phase between 20-40 minutes) through an electromagnetic field. See Yaksh T L, Ozaki G, McCumber D, Rathbun M, Svensson C, Malkmus S, Yaksh M C. An automated flinch detecting system for use in the formalin nociceptive bioassay. J Appl Physiol., 2001; 90:2386-402.

[2] = tested on: tactile allodynia after spinal nerve ligation in mice; test: Mouse Chung Assay (spinal nerve ligation, von Frey tactile allodynia); assay type: in vivo; settings: P<0.0001 in RM ANOVA, FIG. 6
Excerpt: The compound 3-methyloxetan-3-yl-4-(3-(2-methoxypyridin-3-yl)pyrazolo[1,5-a]pyrimidin-5-yl)piperazine-1-carboxylate was studied in the Chung assay. See Chaplan S R, Bach F W, Pogrel J W, Chung J M, Yaksh T L., Quantitative assessment of tactile allodynia in the rat paw, J Neurosci Methods 1994; 53:55-63; Chung J M, Kim H K, Chung K., Segmental spinal nerve ligation model of neuropathic pain, Methods Mol Med. 2004; 99:35-45.
Wild-type hybrid (C57BL/6J-Tyr^c-Brd×129S5/SvEvBrd) male mice were between 5-7 weeks of age at the time of spinal nerve ligation by the conventional Chung protocol. Spinal nerve ligation was carried out according to the procedure devised by Kim and Chung with modifications. Briefly, mice were anesthetized with isoflurane (2% at the oxygen flow rate of […]). A skin incision (1 cm) was made 1 mm to the left of the dorsal midline, using the level of iliac crests as the mid point of the incision. […] In an initial experiment using hybrid mice, the presumptive locations of spinal nerve L5 and L6 were determined by using the sacroiliac junction as the landmark to locate L6, as previously described in SNL models in rats and mice. […] Mice were individually housed after the procedure and were monitored until complete recovery from anesthesia. […]

[3] = target: T1, AAK1 (full length human, NCBI accession no. NP_055726.2) (Homo sapiens, UniProt Q2M2I8); test: P81 Filter Plate Assay; assay type: biochemical; parameters: NP_055726.2; settings: 0.2 nM AAK1 and 2 μM ATP in 2× mixes, 33P-ATP, one hour at RT; read-out: P81 assay result (inhibition of AAK1 phosphorylation of Mu2)
Method: Compounds were serially diluted into a Labcyte LDV plate (Labcyte, cat #LP-0200) using a Mutiprobe (PerkinElmer) and Biomek FX (Beckman Coulter) so that the highest compound concentration was at 96 μM. Compounds were then pinged (75 nL per well) into a Greiner 384-well reaction plate (Greiner, #781076) using an ECHO 550 Liquid Handler (Labcyte). A total of 12 μl reaction buffer (IMAP buffer containing Tween and DTT, from Molecular Devices) was then added to each well of columns 1 and 13 for the negative controls and 12 μl of 2×AAK1 (0.2 nM full-length human protein, NCBI accession no. NP_055726.2) was added to the remaining wells. Enzyme was then pre-incubated with compound for 10 minutes at RT. Reactions were initiated upon Minitrak (PerkinElmer) addition of 12 μl substrate mix containing 2× Mu2 (0.2 μM, full length human protein), 2× cold ATP (2 μM), and 1.3 μCi of hot ^33P-ATP. Reactions proceeded for one hour at RT. Meanwhile, Millipore 384-well P81 filter plates (Millipore, catalog #MZPHNOW10) were placed on a plate washer (Zoom ZW, from Titertek) and pre-wet with 50 μl 1% phosphoric acid. […] The bottom of each filter plate was sealed followed by addition of 20 μl Microscint 40 to each well, sealing the top of the plates with Flashplate cover, and then waiting one hour until reading on the TopCount (PerkinElmer).

[4] = target: T1, AAK1 (full length human, NCBI accession no. NP_055726.2); test: HEK281 Cell-Based Assay (phospho-mu2 Western blot in HEK293F cells transfected with AAK1 and AP2M1); parameters: HA; expressed in transfected cells; host or cells: HEK293F; settings: 3 hours incubation, read-out: HEK281 cell-based assay IC50 (inhibition of mu2 phosphorylation)
Method: HEK293F cells were cultured in media containing DMEM (Gibco, cat. #11965), 10% FBS (SAFC Biosciences, cat. #12103C), 1×GPS (glutamine, penicillin and streptomycin). On day one, cells were plated on a 10 cm dish so that they are ˜80% confluent at time of transfection. Roughly 12 million cells were in a 10 cm dish at time of transfection. On day two, each dish was transfected with 48 ug DNA and 144 ul Lipofectamine 2000 (Invitrogen, cat. #11668-019). The DNA was comprised of a mixture (per 10 cm dish) containing 3 ug AAK1/HA/pIRES (full length human, NCBI accession no. NP_055726.2), 45 μg Flag/AP2MI/pcDNA (full length human), and 1.5 ml OPTI-MEM. The Lipofectamine 2000 is made up of a mixture (per 10 cm dish) containing 144 μl Lipofectamine 2000 and 1.5 ml OPTI-MEM. Each mixture was transferred to individual 15 ml tubes and incubated at RT for 5 minutes, and then the two mixes were combined and incubated at RT for 20 minutes. Growth media was then aspirated from each 10 cm plate and replaced with 10 ml of DMEM+10% FBS (no GPS). Finally, 3 ml DNA/Lipofectamine mix was added to each 10 cm dish and mix gently followed by incubate of plate overnight at 37° C. and 5% CO2.
On day three, compounds were diluted in 100% DMSO at 1000× final concentration, followed by 3-fold serial dilutions for a total of 5 concentrations tested. Four compounds were tested per 10 cm dish. […]

PC12 cells = settings: Kuai et al. 2011; cited from earlier work
AAK1 = AAK1 (Homo sapiens, UniProt Q2M2I8); settings: cited from earlier work
Sequence of AAK1 (Q2M2I8 whole entry, species assumed): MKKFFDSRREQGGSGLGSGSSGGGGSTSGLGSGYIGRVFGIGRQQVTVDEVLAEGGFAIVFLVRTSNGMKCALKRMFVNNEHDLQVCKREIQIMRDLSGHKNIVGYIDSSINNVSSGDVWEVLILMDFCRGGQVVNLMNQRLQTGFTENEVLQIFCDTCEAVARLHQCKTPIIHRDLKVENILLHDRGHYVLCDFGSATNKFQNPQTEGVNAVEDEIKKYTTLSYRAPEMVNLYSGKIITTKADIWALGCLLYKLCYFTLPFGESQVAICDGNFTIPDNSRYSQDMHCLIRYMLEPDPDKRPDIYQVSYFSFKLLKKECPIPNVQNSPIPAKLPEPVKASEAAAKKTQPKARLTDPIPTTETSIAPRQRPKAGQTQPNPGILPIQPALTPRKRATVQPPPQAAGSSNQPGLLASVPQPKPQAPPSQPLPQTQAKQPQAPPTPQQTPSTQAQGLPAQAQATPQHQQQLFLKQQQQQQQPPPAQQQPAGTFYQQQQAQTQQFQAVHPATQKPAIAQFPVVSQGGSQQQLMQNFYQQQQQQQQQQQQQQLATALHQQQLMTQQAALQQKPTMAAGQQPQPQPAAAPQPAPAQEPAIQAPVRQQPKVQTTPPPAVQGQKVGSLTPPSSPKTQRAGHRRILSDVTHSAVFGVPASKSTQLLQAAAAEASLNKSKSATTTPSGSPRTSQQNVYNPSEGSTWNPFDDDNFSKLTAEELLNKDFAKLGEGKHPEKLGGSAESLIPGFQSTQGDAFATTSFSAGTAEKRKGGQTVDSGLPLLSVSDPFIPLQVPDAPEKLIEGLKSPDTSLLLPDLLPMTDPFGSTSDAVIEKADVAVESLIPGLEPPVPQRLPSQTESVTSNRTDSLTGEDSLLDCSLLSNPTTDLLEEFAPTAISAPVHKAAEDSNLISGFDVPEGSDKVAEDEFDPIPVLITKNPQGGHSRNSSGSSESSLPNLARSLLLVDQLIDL

T1 sequence (Q2M2I8 1-863 isoform Q2M2I8-2): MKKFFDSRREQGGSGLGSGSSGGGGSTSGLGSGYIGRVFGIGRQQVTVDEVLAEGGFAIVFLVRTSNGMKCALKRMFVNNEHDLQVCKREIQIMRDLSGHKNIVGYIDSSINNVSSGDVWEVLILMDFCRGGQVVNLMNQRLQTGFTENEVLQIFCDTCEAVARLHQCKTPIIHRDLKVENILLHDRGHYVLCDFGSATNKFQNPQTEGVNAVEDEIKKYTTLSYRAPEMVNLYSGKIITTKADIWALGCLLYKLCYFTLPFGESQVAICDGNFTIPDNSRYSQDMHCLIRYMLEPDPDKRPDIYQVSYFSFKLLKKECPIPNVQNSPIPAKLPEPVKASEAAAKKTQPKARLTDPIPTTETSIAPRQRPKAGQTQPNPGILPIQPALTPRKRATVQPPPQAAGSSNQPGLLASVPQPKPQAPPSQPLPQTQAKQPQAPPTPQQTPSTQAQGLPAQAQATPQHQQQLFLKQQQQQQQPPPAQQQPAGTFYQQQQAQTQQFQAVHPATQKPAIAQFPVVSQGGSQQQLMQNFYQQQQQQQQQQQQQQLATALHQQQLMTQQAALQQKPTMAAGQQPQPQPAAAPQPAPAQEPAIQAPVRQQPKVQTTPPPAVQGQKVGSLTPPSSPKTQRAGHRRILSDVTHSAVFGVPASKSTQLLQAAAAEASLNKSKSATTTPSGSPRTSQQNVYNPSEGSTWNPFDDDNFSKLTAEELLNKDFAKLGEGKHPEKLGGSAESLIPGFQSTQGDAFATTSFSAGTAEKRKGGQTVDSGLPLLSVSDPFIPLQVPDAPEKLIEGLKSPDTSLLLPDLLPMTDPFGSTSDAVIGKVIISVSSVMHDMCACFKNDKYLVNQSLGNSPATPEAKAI

Row | IC50 [3] [nM] | IC50 [4] [nM] | Structure (SMILES) | Formalin phase 2 (tonic phase) flinches versus vehicle [1] | Effect in the Chung assay (von Frey 50% withdraw threshold) [2] | Effect on Neuregulin-1 induced neurite outgrowth (PC12 cells) | Effect on AAK1 kinase activity (AAK1)
1 | 0.9 | 4.7 | COc1ncccc1-c1cnn2ccc(N3CCN(C(=O)OC4(C)COC4)CC3)nc12 [3-methyloxetan-3-yl-4-(3-(2-methoxypyridin-3-yl)pyrazolo[1,5-a]pyrimidin-5-yl)piperazine-1-carboxylate] | dramatic effect | dose-dependent, significantly significant effect |  | 
2 |  |  | COC(=O)[C@@]1(O)C[C@H]2O[C@]1(C)n1c3ccccc3c3c4c(c5c6ccccc6n2c5c31)C(=O)NC4 [K252a] |  |  | potentiation of Neuregulin-1 induced neurite outgrowth | inhibits AAK1 kinase activity
